In PMC8655160, “Overcome Chemoresistance: Biophysical and Structural Analysis of Synthetic FHIT-Derived Peptides” (Frontiers in Molecular Biosciences, 2021):

T1: ANXA4 (Homo sapiens, UniProt P09525)
T1 construct: purchased Genscript lot N. U8886ED090-5/P3ED001
T1 sequence (P09525 1-319): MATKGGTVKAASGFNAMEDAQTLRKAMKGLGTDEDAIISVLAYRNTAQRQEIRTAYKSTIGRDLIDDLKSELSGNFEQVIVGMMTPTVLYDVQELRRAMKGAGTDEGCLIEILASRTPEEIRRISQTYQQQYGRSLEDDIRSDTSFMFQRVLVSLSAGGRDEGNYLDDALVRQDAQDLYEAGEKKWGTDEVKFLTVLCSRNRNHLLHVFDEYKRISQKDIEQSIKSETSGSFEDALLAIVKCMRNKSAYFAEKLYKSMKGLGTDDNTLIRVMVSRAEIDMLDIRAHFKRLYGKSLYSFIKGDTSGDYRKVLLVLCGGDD

T2: His-tag-ANXA4 (annexin A4) (UniProt P09525 1-319, in MST only: labelled with His-Tag Labeling Kit RED-tris-NTA (NT647 fluorophore))
T2 construct: annexin A4 (ANXA4); Probably human ANXA4, since the work is on human lung cancer cells; also called NT647-ANXA4; ANX4; source: expressed by Genscript (lot N. U8886ED090-5/P3ED001); not shown: His6, C-terminal, kept
T2 sequence (looked up): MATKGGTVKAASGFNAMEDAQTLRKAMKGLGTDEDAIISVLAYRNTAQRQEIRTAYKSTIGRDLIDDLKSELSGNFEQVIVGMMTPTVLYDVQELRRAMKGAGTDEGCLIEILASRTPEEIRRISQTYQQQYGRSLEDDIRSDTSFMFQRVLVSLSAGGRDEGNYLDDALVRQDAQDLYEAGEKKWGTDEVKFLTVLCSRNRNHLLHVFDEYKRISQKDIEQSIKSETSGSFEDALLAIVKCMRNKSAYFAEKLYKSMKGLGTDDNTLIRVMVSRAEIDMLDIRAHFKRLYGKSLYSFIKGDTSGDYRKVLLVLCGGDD

T3: His-tag-ANXA4 (annexin A4) (UniProt P09525 1-319, in MST only: labelled with His-Tag Labeling Kit RED-tris-NTA (NT647 fluorophore))
T3 chain: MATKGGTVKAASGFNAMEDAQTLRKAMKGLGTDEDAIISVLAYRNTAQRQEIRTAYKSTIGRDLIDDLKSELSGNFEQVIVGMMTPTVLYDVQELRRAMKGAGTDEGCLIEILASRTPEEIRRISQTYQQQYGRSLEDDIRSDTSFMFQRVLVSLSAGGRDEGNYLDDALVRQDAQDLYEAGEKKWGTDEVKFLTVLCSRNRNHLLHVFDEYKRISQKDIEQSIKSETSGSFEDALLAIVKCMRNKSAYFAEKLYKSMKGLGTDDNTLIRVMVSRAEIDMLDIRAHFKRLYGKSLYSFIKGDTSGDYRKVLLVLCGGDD


Experiments:
ANXA4 = molecular target: T1, ANXA4; experiment: NanoDSF thermal unfolding of ANXA4 with peptides; format: binding; conditions: peptide 200 μM, protein 40 µM; for Tm (°C): ramp 20-95°C, Ctrl 48.5; for ΔTm at 200 µM: versus Ctrl
Description: The assay was carried out in PBS (pH 7.4, 5 mM CaCl2) buffer using 40 μM of protein and 200 μM of compounds. The samples were loaded into nanoDSF Grade Standard Capillaries (NanoTemper Technologies) and analyzed using the Prometheus NT.48 nanoDSF device (NanoTemper Technologies). Thermal unfolding of the protein was monitored using a linear thermal ramp (1°C/min; 20°C–95°C) with an excitation power of 90%. […] In control, the sample was replaced with buffer solution. Three independent measurements were carried out for each compound, and their mean is depicted. The fluorescence intensity ratio and its first derivative were calculated with the manufacturer’s software (PR.ThermControl, version 2.1.2).
NanoDSF is an advanced differential scanning fluorimetry method for measuring melting temperature (Tm) of peptide-protein complex. In nanoDSF, a protein in solution is exposed to a temperature gradient that leads to the unfolding of the protein. The intrinsic fluorescence of the protein, mainly originating from the aromatic sidechains of tyrosine and tryptophan residues, is examined. Upon unfolding, the environment of those residues alters because they become exposed to the solvent and, thus, their fluorescence intensity changes. The relation between fluorescence intensity changes and temperature gradient can be used to obtain a so-called apparent Tm.

A549 cells = format: cell-based; conditions: peptide (100 μM) + paclitaxel (800 nM); 72 h
Description: A549 were grown in appropriate medium (Sigma Aldrich, St. Louis, MO) supplemented with 10% fetal bovine serum (FBS) (Sigma Aldrich, St. Louis, MO), 1% penicillin/streptomycin (Sigma Aldrich, St. Louis, MO) at 37°C in a 5% CO2 incubator. A549, adenocarcinoma cells line, were treated using a combo of paclitaxel (800 nM, PTX) and peptides (10 μM, 50 μM, 100 µM). After 24, 48, and 72 h, 10 μL/well of CTG detection mix, from CellTiter-Glo Assay Kit (Promega Corp, Madison, United States), were added; plates were gently mixed, incubated for 10 min in the dark, and read using EnVision Multilabel 2103.  FIGURE 8 Inhibition of A549 cell viability in cells treated with paclitaxel (800 nM) and peptides 1–8 (100 μM). Cells were plated in triplicate in 384-well plates and treated with PTX and peptides (DMSO was used as a […] control) for 24, 48, or 72 h. Cell viability was measured using CellTiter assay as described in the Materials and Methods section. Cell viability was expressed as a percentage of control and each column represents the mean ± SD of three independent experiments.

[1] = system: Annexin A4 translocation in A549 and Calu-2 lung cancer cells; set-up: method as in Gaudio et al., 2013; conditions: A549 and Calu-2 lung cancer cells treated with paclitaxel; ref Gaudio et al., 2013; cited from earlier work
[2] = molecular target: T2, His-tag-ANXA4 (annexin A4); experiment: SPR; Biacore T200; His-tag-ANXA4 captured on anti-histidine antibody coupled to CM5 chip; peptide 0.08-5 uM injected at 25 C, 30 uL/min, 120 s association, 600 s dissociation; HBS-P+ pH 7.4 with 5 mM CaCl2; global 1:1 fit, KD = kd/ka; conditions: both partners purified
[3] = molecular target: T3, His-tag-ANXA4 (annexin A4); experiment: SPR
[4] = molecular target: T2, His-tag-ANXA4 (annexin A4); experiment: MST; Monolith NT.115pico; 40 nM NT647-labelled ANXA4 mixed 1:1 with serial dilutions of peptide (highest 50 uM); PBS pH 7.4, 5 mM CaCl2; 10 min at rt; standard-treated capillaries, high MST power, LED 10%; duplicates; conditions: both partners purified

Row | Molecule | Tm (°C) (ANXA4) | ΔTm at 200 µM (ANXA4) [°C] | Kd [2] [nM] | Kd [4] [nM] | also measured
1 | Ac-QALIKPS-NH2 [peptide 7, QALIKPS] | 49.1 | 0.6 | – | – | Biological activity in combination with paclitaxel compared to reference peptide 1 (in words) (A549 cells): slightly improves the paclitaxel cytotoxicity
2 | Ac-AHLIKPS-NH2 [peptide 8, AHLIKPS] | 48.9 | 0.4 | – | – | Biological activity in combination with paclitaxel compared to reference peptide 1 (in words) (A549 cells): decrease of cell viability compared to reference peptide 1
3 | Ac-QHLIKPS-NH2 (FHIT (fragile histidine triad protein), residues 7-13; also called FHIT (7-13); lead peptide; source: synthetic peptide (Fmoc solid phase, RP-HPLC purified)) [FHIT mimetic peptide 7-13 (peptide 1)] | – | – | 840 ± 50 | 4650 | Kd [3]: 1260 nM
4 | Ac-QHAIKPS-NH2 (FHIT residues 7-13 with Leu3 of the peptide replaced by Ala; numbers count on: the peptide (residue 1 = Gln7 of FHIT); Leu3 is L9 of FHIT; also called derivative 6; source: synthetic peptide (Fmoc solid phase, RP-HPLC purified)) [peptide 6 (QHAIKPS)] | – | – | – | 6400 | –
5 | Ac-QHLIKAS-NH2 (FHIT residues 7-13 with Pro6 of the peptide replaced by Ala; numbers count on: the peptide (residue 1 = Gln7 of FHIT); Pro6 is P12 of FHIT; also called analogue 3; source: synthetic peptide (Fmoc solid phase, RP-HPLC purified)) [peptide 3 (QHLIKAS)] | – | – | 375 ± 20 | 14 | –
6 | Ac-QHLIKPA-NH2 (FHIT residues 7-13 with Ser7 of the peptide replaced by Ala; numbers count on: the peptide (residue 1 = Gln7 of FHIT); Ser7 is S13 of FHIT; also called analogue 2; source: synthetic peptide (Fmoc solid phase, RP-HPLC purified)) [peptide 2 (QHLIKPA)] | – | – | 552 ± 80 | 218 | –
7 | Ac-QHLIAPS-NH2 (FHIT residues 7-13 with Lys5 of the peptide replaced by Ala; numbers count on: the peptide (residue 1 = Gln7 of FHIT); Lys5 is K11 of FHIT; also called analogue 4; source: synthetic peptide (Fmoc solid phase, RP-HPLC purified)) [peptide 4 (QHLIAPS)] | – | – | 53 ± 10 | 146 | –

Continued, in another order:

Row | Tm (°C) (ANXA4) | ΔTm at 200 µM (ANXA4) [°C] | Kd [2] [nM] | Kd [4] [nM] | Molecule | also measured
8 | 49.2 | 0.7 | – | – | Ac-QHLAKPS-NH2 [compound 5, QHLAKPS] | –
9 | 48.7 | 0.2 | – | – | Ac-QHLIKPA-NH2 (N-terminus and C-terminus assumed) [peptide 2, QHLIKPA] | Biological activity in combination with paclitaxel compared to reference peptide 1 (in words) (A549 cells): basically preserves the biological activity
10 | 49.2 | 0.7 | – | – | Ac-QHLIAPS-NH2 [peptide 4, QHLIAPS] | –
11 | – | 0.5 | – | – | Ac-QHLIKAS-NH2 [peptide 3, QHLIKAS] | –
12 | 48.6 | 0.1 | – | – | Ac-QHLIKPS-NH2 [peptide 1, QHLIKPS] | Inhibition of Annexin A4 translocation from cytosol to plasma membrane [1]: inhibiting Annexin A4 translocation from cytosol to plasma membrane
13 | 48.9 | 0.4 | – | – | Ac-QHAIKPS-NH2 [peptide 6, QHAIKPS] | Biological activity in combination with paclitaxel compared to reference peptide 1 (in words) (A549 cells): slightly improves the paclitaxel cytotoxicity
14 | – | – | 1520 ± 330 | 3040 | Ac-AHLIKPS-NH2 (FHIT residues 7-13 with Gln1 of the peptide replaced by Ala; numbers count on: the peptide (residue 1 = Gln7 of FHIT); Gln1 is Q7 of FHIT; also called analogue 8; source: synthetic peptide (Fmoc solid phase, RP-HPLC purified)) [peptide 8 (AHLIKPS)] | –
15 | – | – | – | 1410 | Ac-QHLAKPS-NH2 (FHIT residues 7-13 with Ile4 of the peptide replaced by Ala; numbers count on: the peptide (residue 1 = Gln7 of FHIT); Ile4 is I10 of FHIT; also called analogue 5; source: synthetic peptide (Fmoc solid phase, RP-HPLC purified)) [peptide 5 (QHLAKPS)] | –
16 | – | – | 850 ± 55 | 1130 | Ac-QALIKPS-NH2 (FHIT residues 7-13 with His2 of the peptide replaced by Ala; numbers count on: the peptide (residue 1 = Gln7 of FHIT); His2 is H8 of FHIT; also called derivative 7; source: synthetic peptide (Fmoc solid phase, RP-HPLC purified)) [peptide 7 (QALIKPS)] | –
